Reference: the supplement of paper PMC11208160

Test: recombinant UMI read abundance after kanamycin selection (control-corrected) (log10(CPM+1)); higher = more efficient recombination; extreme values may be limits of the assay; sequences stand for … in AGTGCAGAGAAAATCGGCCAGTTTTCTCTGCCTGCAGTCCGCATGCCGTGGGACCCCTTGGGTTCTAACCTGTTGCCTAGATTTATGCAGCGGACTGCCTTTCTCCCAAAGTGATAAACCGG…AGGTTGGTTTCACT; site = the 11-nt donor
Protocol: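 Pooled E. coli donor-specificity screen for the IS621 bridge recombinase. Each library member carries a reprogrammed 11-nt donor and a full-length LE bridge RNA expressed in cis from the natural promoter, with a paired donor-binding loop (8-nt LDG + 4-nt RDG) and a target-binding loop fixed to T5. It is co-electroporated with a T5 target plasmid; recombinase is induced with 0.07 mM IPTG and recombinants are selected on kanamycin. UMIs are counted as CPM, averaged over two biological replicates and corrected by the unselected control. Molecule = full bridge RNA written as DNA, built from the T5 scaffold: LDG = donor specificity nt 1-8, RDG = reverse complement of nt 8-11.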
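Note: IS621 bridge recombinase in Escherichia coli cells against a fixed T5 target plasmid.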

Sequence | recombinant UMI read abundance (log10)
ACAGTATCATGGACCGGTTTTCCCGGTAATCCGTATTTGCA (site ACAGCATCTTA) | 0.00439
ACAGTATCATGGACCGGTTTTCCCGGTAATCCGTATTTGCA (site ACAGCATCTTG) | 1.64
ACAGTATCATGGACCGGTTTTCCCGGTAATCCGTATTTGCA (site ACAGCTTCTTG) | 0
ACAGTATCATGGACCGGTTTTCCCGGTAATCCGTATTTGCA (site ACAGGACCTTG) | 0
ACAGTATCATGGACCGGTTTTCCCGGTAATCCGTATTTGCA (site ACAGGATCTGG) | 0
ACAGTATCATGGACCGGTTTTCCCGGTAATCCGTATTTGCA (site ACAGGATCTTG) | 1.01
ACAGTATCATGGACCGGTTTTCCCGGTAATCCGTATTTGCA (site ACAGGATCTTT) | 0
ACAGTATCATGGACCGGTTTTCCCGGTAATCCGTATTTGCA (site ACAGGGTCTTG) | 1.17
ACAGTATCATGGACCGGTTTTCCCGGTAATCCGTATTTGCA (site ACAGTAACTAG) | 0
ACAGTATCATGGACCGGTTTTCCCGGTAATCCGTATTTGCA (site ACAGTAACTTC) | 0.0177
ACAGTATCATGGACCGGTTTTCCCGGTAATCCGTATTTGCA (site ACAGTAACTTG) | 1.55
ACAGTATCATGGACCGGTTTTCCCGGTAATCCGTATTTGCA (site ACAGTACCTGG) | 0
ACAGTATCATGGACCGGTTTTCCCGGTAATCCGTATTTGCA (site ACAGTACCTTG) | 0
ACAGTATCATGGACCGGTTTTCCCGGTAATCCGTATTTGCA (site ACAGTACCTTT) | 0.00804
ACAGTATCATGGACCGGTTTTCCCGGTAATCCGTATTTGCA (site ACAGTAGCTCG) | 0.00206
ACAGTATCATGGACCGGTTTTCCCGGTAATCCGTATTTGCA (site ACAGTAGCTTA) | 0.00334
ACAGTATCATGGACCGGTTTTCCCGGTAATCCGTATTTGCA (site ACAGTAGCTTG) | 0.142
ACAGTATCATGGACCGGTTTTCCCGGTAATCCGTATTTGCA (site ACAGTATCTAC) | 0
ACAGTATCATGGACCGGTTTTCCCGGTAATCCGTATTTGCA (site ACAGTATCTAG) | 1.81
ACAGTATCATGGACCGGTTTTCCCGGTAATCCGTATTTGCA (site ACAGTATCTCA) | 0.878
ACAGTATCATGGACCGGTTTTCCCGGTAATCCGTATTTGCA (site ACAGTATCTCG) | 1.77
ACAGTATCATGGACCGGTTTTCCCGGTAATCCGTATTTGCA (site ACAGTATCTGG) | 2.13
ACAGTATCATGGACCGGTTTTCCCGGTAATCCGTATTTGCA (site ACAGTATCTGT) | 0.00931
ACAGTATCATGGACCGGTTTTCCCGGTAATCCGTATTTGCA (site ACAGTATCTTA) | 2.23

Sequence | recombinant UMI read abundance (log10)
ACAGTATCATGGACCGGTTTTCCCGGTAATCCGTATTTGCA (site ACAGTATCTTC) | 1.17
ACAGTATCATGGACCGGTTTTCCCGGTAATCCGTATTTGCA (site ACAGTATCTTG) | 2.67
ACAGTATCATGGACCGGTTTTCCCGGTAATCCGTATTTGCA (site ACAGTATCTTT) | 2.17
ACAGTATCATGGACCGGTTTTCCCGGTAATCCGTATTTGCA (site ACAGTCACTTG) | 2.03
ACAGTATCATGGACCGGTTTTCCCGGTAATCCGTATTTGCA (site ACAGTCTCTAG) | 0
ACAGTATCATGGACCGGTTTTCCCGGTAATCCGTATTTGCA (site ACAGTCTCTTC) | 0.0179
ACAGTATCATGGACCGGTTTTCCCGGTAATCCGTATTTGCA (site ACAGTCTCTTG) | 2.06
ACAGTATCATGGACCGGTTTTCCCGGTAATCCGTATTTGCA (site ACAGTGCCTTG) | 0.121
ACAGTATCATGGACCGGTTTTCCCGGTAATCCGTATTTGCA (site ACAGTGTCTGG) | 0
ACAGTATCATGGACCGGTTTTCCCGGTAATCCGTATTTGCA (site ACAGTGTCTTG) | 2.4
ACAGTATCATGGACCGGTTTTCCCGGTAATCCGTATTTGCA (site ACAGTGTCTTT) | 0.0151
ACAGTATCATGGACCGGTTTTCCCGGTAATCCGTATTTGCA (site ACAGTTGCTTG) | 0.0085
ACAGTATCATGGACCGGTTTTCCCGGTAATCCGTATTTGCA (site ACAGTTTCTCG) | 0
ACAGTATCATGGACCGGTTTTCCCGGTAATCCGTATTTGCA (site ACAGTTTCTTA) | 0.0131
ACAGTATCATGGACCGGTTTTCCCGGTAATCCGTATTTGCA (site ACAGTTTCTTG) | 1.23
ACAGTATCATGGACCGGTTTTCCCGGTAATCCGTATTTGCA (site ACATGATCTTG) | 1.29
ACAGTATCATGGACCGGTTTTCCCGGTAATCCGTATTTGCA (site ACATTACCTTG) | 0
ACAGTATCATGGACCGGTTTTCCCGGTAATCCGTATTTGCA (site ACATTATCTGG) | 0
ACAGTATCATGGACCGGTTTTCCCGGTAATCCGTATTTGCA (site ACATTATCTTG) | 1.22
ACAGTATCATGGACCGGTTTTCCCGGTAATCCGTATTTGCA (site ACATTATCTTT) | 0.0113
ACAGTATCATGGACCGGTTTTCCCGGTAATCCGTATTTGCA (site ACATTGTCTTG) | 1.03
ACAGTATCATGGACCGGTTTTCCCGGTAATCCGTATTTGCA (site ACCATATCTTG) | 1.91
ACAGTATCATGGACCGGTTTTCCCGGTAATCCGTATTTGCA (site ACCGAATCTTG) | 0
ACAGTATCATGGACCGGTTTTCCCGGTAATCCGTATTTGCA (site ACCGTAACTTG) | 0.0063

Sequence | recombinant UMI read abundance (log10)
ACAGTATCATGGACCGGTTTTCCCGGTAATCCGTATTTGCA (site ACCGTATCTAG) | 0.0104
ACAGTATCATGGACCGGTTTTCCCGGTAATCCGTATTTGCA (site ACCGTATCTTC) | 0.00762
ACAGTATCATGGACCGGTTTTCCCGGTAATCCGTATTTGCA (site ACCGTATCTTG) | 1.82
ACAGTATCATGGACCGGTTTTCCCGGTAATCCGTATTTGCA (site ACCGTCTCTTG) | 1.39
ACAGTATCATGGACCGGTTTTCCCGGTAATCCGTATTTGCA (site ACGCTATCTTG) | 1.16
ACAGTATCATGGACCGGTTTTCCCGGTAATCCGTATTTGCA (site ACGGCATCTTG) | 0
ACAGTATCATGGACCGGTTTTCCCGGTAATCCGTATTTGCA (site ACGGTAGCTTG) | 0.0044
ACAGTATCATGGACCGGTTTTCCCGGTAATCCGTATTTGCA (site ACGGTATCTCG) | 0.00452
ACAGTATCATGGACCGGTTTTCCCGGTAATCCGTATTTGCA (site ACGGTATCTTA) | 0.00481
ACAGTATCATGGACCGGTTTTCCCGGTAATCCGTATTTGCA (site ACGGTATCTTG) | 0.0156
ACAGTATCATGGACCGGTTTTCCCGGTAATCCGTATTTGCA (site ACGGTTTCTTG) | 0.0105
ACAGTATCATGGACCGGTTTTCCCGGTAATCCGTATTTGCA (site ACTGGATCTTG) | 0
ACAGTATCATGGACCGGTTTTCCCGGTAATCCGTATTTGCA (site ACTGTACCTTG) | 0
ACAGTATCATGGACCGGTTTTCCCGGTAATCCGTATTTGCA (site ACTGTATCTGG) | 0.00893
ACAGTATCATGGACCGGTTTTCCCGGTAATCCGTATTTGCA (site ACTGTATCTTG) | 2.31
ACAGTATCATGGACCGGTTTTCCCGGTAATCCGTATTTGCA (site ACTGTATCTTT) | 0.00405
ACAGTATCATGGACCGGTTTTCCCGGTAATCCGTATTTGCA (site ACTGTGTCTTG) | 1.26
ACAGTATCATGGACCGGTTTTCCCGGTAATCCGTATTTGCA (site ACTTTATCTTG) | 1.44
ACAGTATCATGGACCGGTTTTCCCGGTAATCCGTATTTGCA (site AGAGGATCTTG) | 0.0328
ACAGTATCATGGACCGGTTTTCCCGGTAATCCGTATTTGCA (site AGAGTACCTTG) | 0
ACAGTATCATGGACCGGTTTTCCCGGTAATCCGTATTTGCA (site AGAGTATCTGG) | 0.0344
ACAGTATCATGGACCGGTTTTCCCGGTAATCCGTATTTGCA (site AGAGTATCTTG) | 2.46
ACAGTATCATGGACCGGTTTTCCCGGTAATCCGTATTTGCA (site AGAGTATCTTT) | 0.0042
ACAGTATCATGGACCGGTTTTCCCGGTAATCCGTATTTGCA (site AGAGTGTCTTG) | 1.6
